Experiment: Effect on central nervous, respiratory and cardiovascular system of animals
Format: in vivo
Method: According to the general toxicology study in accordance with the NMPA “Good Laboratory Practice for Non-clinical Laboratory Studies” and FDA GLP specification (21CFR Part 58), and in line with the requirements of International Conference on Harmonization of Technical Requirements for Registration of Pharmaceuticals for Human Use (ICH) and the NMPA relevant guidelines, the toxicology study on Compound (I) was carried out to provide safety data support for the use of Compound (I) in clinical patients. The administration mode and the experimental results were as follows: […]

Structure (SMILES): NC(=O)c1cnc(Nc2ccc3c(c2)OC[C@H]2CN(S(=O)(=O)C4CC4)CCN32)nc1NC1CC1 [Compound (I), (R)-4-(cyclopropylamino)-2-((3-(cyclopropylsulfonyl)-1,2,3,4,4a,5-hexahydrobenzo[b]pyrazolo[1,2-d][1,4]oxazin-8-yl)amino)pyrimidine-5-arboxamide]
- Effect on the central nervous system, respiratory system and cardiovascular system: no effect
